# From US10738040B2, “Compounds, compositions, and methods for increasing CFTR activity” (Proteostasis Therapeutics, Inc., priority 2014, dated 2020)
# Marks after values point to notes of the source that are not given here.
# Tests used:
# ΔF508-CFTR [1] = biological target: T1, ΔF508-CFTR (Homo sapiens, UniProt P13569, DEL508-508); experiment: Ussing measurements (short-circuit current, CFTRinh-172-inhibitable); format: cell-based; conditions: compound at 10 uM and VX-809 at 3 uM, relative to VX-809 (3 uM); hBEs homozygous for ΔF508, 24 hours treatment; CFTRinh-172-inhibitable current
# T1 construct: Primary lung epithelial cells homozygous for the Cystic Fibrosis-causing ΔF508 mutation were differentiated; endogenous in cells; host or cells: primary human lung (bronchial) epithelial cells homozygous for ΔF508, differentiated at air-liquid interface
# T1 sequence (P13569 with tags, fused parts or gaps DEL508-508): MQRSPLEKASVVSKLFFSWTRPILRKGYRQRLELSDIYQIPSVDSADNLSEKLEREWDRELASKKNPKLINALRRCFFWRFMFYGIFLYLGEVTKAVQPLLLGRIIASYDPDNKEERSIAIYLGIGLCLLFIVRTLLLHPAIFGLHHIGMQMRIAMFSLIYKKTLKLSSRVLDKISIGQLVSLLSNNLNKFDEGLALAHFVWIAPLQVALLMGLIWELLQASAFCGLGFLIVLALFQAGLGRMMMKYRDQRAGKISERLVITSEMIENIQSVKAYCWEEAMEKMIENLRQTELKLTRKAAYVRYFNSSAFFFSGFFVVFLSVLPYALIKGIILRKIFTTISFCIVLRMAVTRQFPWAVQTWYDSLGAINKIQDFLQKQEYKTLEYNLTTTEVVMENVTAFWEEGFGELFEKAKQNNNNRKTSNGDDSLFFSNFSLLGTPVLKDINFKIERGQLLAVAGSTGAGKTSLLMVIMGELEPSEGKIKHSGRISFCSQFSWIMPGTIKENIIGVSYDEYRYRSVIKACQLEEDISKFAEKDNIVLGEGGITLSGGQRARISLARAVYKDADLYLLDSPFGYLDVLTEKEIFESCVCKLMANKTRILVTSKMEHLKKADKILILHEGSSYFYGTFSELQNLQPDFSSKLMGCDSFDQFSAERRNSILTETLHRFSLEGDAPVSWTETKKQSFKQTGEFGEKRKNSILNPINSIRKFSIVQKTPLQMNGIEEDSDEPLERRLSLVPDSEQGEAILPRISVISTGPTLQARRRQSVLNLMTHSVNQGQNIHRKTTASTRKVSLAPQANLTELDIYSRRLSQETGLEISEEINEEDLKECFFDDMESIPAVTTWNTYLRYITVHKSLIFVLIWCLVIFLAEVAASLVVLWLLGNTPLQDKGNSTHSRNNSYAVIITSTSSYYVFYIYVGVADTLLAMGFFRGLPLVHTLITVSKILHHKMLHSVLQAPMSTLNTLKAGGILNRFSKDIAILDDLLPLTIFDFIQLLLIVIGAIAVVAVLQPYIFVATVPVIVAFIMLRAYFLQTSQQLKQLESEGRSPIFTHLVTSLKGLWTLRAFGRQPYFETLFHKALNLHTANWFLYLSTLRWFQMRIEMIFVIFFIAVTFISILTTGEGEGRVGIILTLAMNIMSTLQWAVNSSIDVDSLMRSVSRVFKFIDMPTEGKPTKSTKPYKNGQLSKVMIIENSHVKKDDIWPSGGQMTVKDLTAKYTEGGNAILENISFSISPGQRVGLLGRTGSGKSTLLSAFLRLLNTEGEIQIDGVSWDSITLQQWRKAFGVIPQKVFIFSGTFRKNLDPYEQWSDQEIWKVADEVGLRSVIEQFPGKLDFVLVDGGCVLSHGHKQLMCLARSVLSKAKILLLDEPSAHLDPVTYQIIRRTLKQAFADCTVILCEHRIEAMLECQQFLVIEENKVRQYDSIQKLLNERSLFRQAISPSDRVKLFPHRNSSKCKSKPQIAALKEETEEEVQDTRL
# Description: As discussed above, Ussing measurements can be used to measure CFTR activity. In this method, primary lung epithelial cells (hBEs) homozygous for the Cystic Fibrosis-causing ΔF508 mutation were differentiated for a minimum of 4 weeks in an air-liquid interface on SnapWell filter plates prior to the Ussing measurements. Cells were apically mucus-washed for 30 minutes prior to treatment with compounds. The basolateral media was removed and replaced with media containing the compound of interest diluted to its final concentration from DMSO stocks. Treated cells were incubated at 37° C. and 5% CO2 for 24 hours. At the end of the treatment period, the cells on filters were transferred to the Ussing chamber and equilibrated for 30 minutes. The short-circuit current was measured in voltage clamp-mode (Vhold=0 mV), and the entire assay was conducted at a temperature of 36° C.-36.5° C. Once the voltages stabilized, the chambers were clamped, and data was recorded by pulse readings every 5 seconds. Following baseline current stabilization, the following additions were applied and the changes in current and resistance of the cells was monitored: • 1. Benzamil to the apical chamber to inhibit ENaC sodium channel. • 2. Forskolin to both chambers to activate ΔF508-CFTR by phosphorylation. • 3. Genistein to both chambers to potentiate ΔF508-CFTR channel opening. • 4. CFTRinh-172 to the apical chamber to inhibit ΔF508-CFTR Cl— conductance. The inhibitable current (that current that is blocked by CFTRinh-172) is measured as the specific activity of the ΔF508-CFTR channel, and increases in response to compound in this activity over that observed in vehicle-treated samples are identified as the correction of ΔF508-CFTR function imparted by the compound tested.
# ΔF508-CFTR [2] = biological target: T1, ΔF508-CFTR; experiment: hBE equivalent current (Ieq) assay; format: cell-based; conditions: compound at 10 uM and VX-809 at 1 uM, relative to VX-809 (1 uM); primary lung epithelial cells homozygous for ΔF508, 24 hours treatment; AUC of equivalent chloride current
# Description: ii. hBE Equivalent Current (Ieq) Assay
# Primary lung epithelial cells homozygous for the Cystic Fibrosis-causing ΔF508 mutation were differentiated for a minimum of 4 weeks in an air-liquid interface on Costar 24 well HTS filter plates prior to the equivalent current (Ieq) measurements. Cells were apically mucus-washed for 30 minutes 24 h prior to treatment with compounds. The basolateral media was removed and replaced with media containing the compound of interest diluted to its final concentration from DMSO stocks. Treated cells were incubated at 37° C. and 5% CO2 for 24 hours. At the end of the treatment period, the media was changed to the Ieq experimental solution for 30 minutes before the experiment and plates are maintained in a CO2-free incubator during this period. The plates containing the cells were then placed in pre-warmed heating blocks at 36° ° C.±0.5 for 15 minutes before measurements are taken. The transepithelial voltage (VT) and conductance (GT) were measured using a custom 24 channel current clamp (TECC-24) with 24 well electrode manifold. The Ieq assay measurements were made following additions with standardized time periods: • 1. The baseline VT and GT values were measured for approximately 20 minutes. • 2. Benzamil was added to block ENaC for 15 minutes. • 3. Forskolin plus VX-770 (ivacaftor) were added to maximally activate ΔF508-CFTR for 27 minutes. • 4. Bumetanide was added to inhibit the NaK2Cl cotransporter and shut-off secretion of chloride.
# The activity data captured was the area under the curve (AUC) for the traces of the equivalent chloride current. The AUC was collected from the time of the forskolin/VX-770 addition until the inhibition by bumetanide addition. Correction in response to compound treatment was scored as the increase in the AUC for compound-treated samples over that of vehicle-treated samples.
SMILES,Ussing (% VX-809) (ΔF508-CFTR [1]),Ieq (% VX-809) (ΔF508-CFTR [2])
O=C(N[C@H]1C[C@H](n2nncc2CO)C1)c1cc(-c2ccccc2)on1,## (activity ≥200% of VX-809 (3 uM) with compound at 10 uM and VX-809 at 3 uM),++ *
C[C@H](O)c1cnnn1[C@H]1C[C@H](NC(=O)c2cc(-c3ccccc3)on2)C1,# (activity 100-200% of VX-809 (3 uM) with compound at 10 uM and VX-809 at 3 uM),** (activity ≥200% of VX-809 (1 uM) with compound at 10 uM and VX-809 at 1 uM)
C[C@H](O)c1nnc(C2CC(NC(=O)c3cc(-c4ccccc4)on3)C2)o1 (stereo partly shown),## (activity ≥200% of VX-809 (3 uM) with compound at 10 uM and VX-809 at 3 uM),** (activity ≥200% of VX-809 (1 uM) with compound at 10 uM and VX-809 at 1 uM)
C[C@@H](O)c1nnc([C@H]2C[C@@H](NC(=O)c3cc(-c4ccccc4)on3)C2)o1,## (activity ≥200% of VX-809 (3 uM) with compound at 10 uM and VX-809 at 3 uM),** (activity ≥200% of VX-809 (1 uM) with compound at 10 uM and VX-809 at 1 uM)
C[C@H](O)c1nnc([C@H]2C[C@@H](NC(=O)c3cc(-c4ccccc4)on3)C2)o1,## (activity ≥200% of VX-809 (3 uM) with compound at 10 uM and VX-809 at 3 uM),** (activity ≥200% of VX-809 (1 uM) with compound at 10 uM and VX-809 at 1 uM)
